Assay results as given in patent US20040180850A1, “Methods and compositions for treatment of gastric diseases” (priority 2001, published 2004).
Entries after “also recorded” stand apart in the source; their conditions may differ.

Experiments:
Helicobacter pylori [1] = assay: TLC overlay assay of neoglycolipids (reductively aminated oligosaccharides); format: binding
Excerpt: The Helicobacter pylori binding oligosaccharide sequence has been reported in the structure GlcNAcβ3Galβ4GlcNAcβ6GalNAc from human gastric mucins. […] Therefore the preferred oligosaccharide sequences include O-glycans and analogues of O-glycan sequences such as GlcNAcβ3Galβ4GlcNAcβ6GlcNAc/GalNAc/Gal, GleNAcβ3Galβ4GlcNAcβ6GlcNAc/GalNAc/GalαSer/Thr, GlcNAcβ3Galβ4GlcNAcβ6(Gal/GlcNAcβ3)GlcNAc/GalNAc/GalαSer/Thr and glycopeptides and glycopeptide analogs comprising the O-glycan sequences. Even sequences lacking the non-reducing end GlcNAc may have some activity. Based on this all the other Helicobacter pylori binding oligosaccharide sequences (OS) and especially the trisaccharide epitopes are also especially preferred when linked from the reducing end to form structures OSβ6Gal(NAc)0-1 or OSβ6Glc(NAc)0-1 or OSβ6Gal(NAc)0-1Ser/Thr or OSβ6Glc(NAc)0-1αSer/Thr. The Ser or Thr-compounds or analogue thereof or the reducing oligosaccharides are also preferred when linked to a polyvalent carrier. The reducing oligosaccharides can be reductively linked to the polyvalent carrier.
TLC bacterial overlay assay. Thin-layer chromatography was performed on glass- or aluminum-backed silica gel 60 HPTLC plates (Merck, Darmstadt, Germany) using chloroform/methanol/water 60:35:8 (by volume) as solvent system. Chemical detection was accomplished by anisaldehyde stainig (Waldi, 1962). The bacterial overlay assay was performed as described previously (Hansson et al., 1985). Glycosphingolipids (1-4 μg/lane, or as indicated in the figure legend) were chromatographed on aluminum-backed silica gel plates and thereafter treated with 0.3-0.5% polyisobutylmethaerylate in diethylether/n-hexane 1:3 (by volume) for 1 min, dried and subsequently soaked in PBS containing 2% bovine serum albumin and 0.1% Tween 20 for 2 h A suspension of radio-labeled bacteria (diluted in PBS to 1×10^8 CFU/ml and 1-5×10^6 cpm/ml) was sprinkled over the chromatograms and incubated for 2 h followed by repeated rinsings with PBS. After drying the chromatograms were exposed to XAR-5 X-ray films (Eastman Kodak Co., Rochester, N.Y., USA) for 12-100 h.
0.6 mg of pentasaccharide was obtained after HPLC-purcation steps, the saccharide was more than 98% pure when analyzed by mass spectrometry. Part of the pentasaccharide and maltoheptaose (Sigma, Saint Louis, USA) were reductively aminated with 4-hexadecylamnie (abbreviation HDA, from Aldrich, Stockholm, Sweden) by cyanoborohydride (Halina Miller-Podraza, to be published later). […]

[2] = test system: Helicobacter pylori (strain 032); assay: TLC bacterial overlay assay: binding of radiolabeled Helicobacter pylori to glycosphingolipids separated on thin-layer chromatograms; settings: for Helicobacter pylori binding activity of glycosphingolipid (in words): TLC overlay with 35S-labeled bacteria, autoradiography; for binding frequency for Helicobacter pylori: strain 032, total number of plates about 100
Helicobacter pylori [3] = assay: Semi-quantitative TLC overlay test with dilution series of glycosphingolipids; format: binding; settings: evaluated visually after overlay with labeled bacteria and autoradiography

Compound | Helicobacter pylori binding activity of glycosphingolipid (in words) [2] | further results
CC(=O)N[C@H]1[C@H](OC[C@H]2OC(O)[C@H](NC(C)=O)[C@@H](O)[C@@H]2O)O[C@H](CO)[C@@H](O[C@@H]2O[C@H](CO)[C@H](O)[C@H](O[C@@H]3O[C@H](CO)[C@@H](O)[C@H](O)[C@H]3NC(C)=O)[C@H]2O)[C@@H]1O (some centres unmarked) [GlcNAcβ3Galβ4GlcNAcβ6GlcNAc] |  | binding activity of neoglycolipid with regard to Helicobacter pylori (in words) (Helicobacter pylori [1]): high affinity binding
GalNAcα3(Fucα2)Galβ4GlcNAcβ3Galβ4Glcβ1Cer [No. 22] | non-binding | 
Galα3(Fucα2)Galβ4GlcNAcβ3Galβ4Glcβ1Cer [No. 23] | non-binding | 
GlcNAcβ3Galβ4GlcNAcβ3Galβ4Glcβ1Cer [No. 10] |  | amount of glycolipid giving a positive response on TLC plates (binding of Helicobacter pylori) (Helicobacter pylori [3]): 0.039 nmol/spot; Helicobacter pylori binding activity of glycosphingolipid (in words) ([2]; listed as pentaglycosylceramide): strong activity; also recorded: displayed binding activity; binding frequency for Helicobacter pylori [2]: ~90%
CC(=O)N[C@H]1[C@H](OC[C@H]2OC(O)[C@H](O)[C@@H](O)[C@H]2O)O[C@H](CO)[C@@H](O[C@@H]2O[C@H](CO)[C@H](O)[C@H](O[C@@H]3O[C@H](CO)[C@@H](O)[C@H](O)[C@H]3NC(C)=O)[C@H]2O)[C@@H]1O (some centres unmarked) [GlcNAcβ3Galβ4GlcNAcβ6Gal] |  | binding activity of neoglycolipid with regard to Helicobacter pylori (in words) (Helicobacter pylori [1]): some binding activity
Galβ4GlcNAcβ3Galβ4Glcβ1Cer [No. 5] | displayed binding activity | amount of glycolipid giving a positive response on TLC plates (binding of Helicobacter pylori) (Helicobacter pylori [3]): ~0.3 nmol/spot
maltoheptaose(red)-HDA [maltoheptaose/red)-HDA, reference compound] |  | binding activity of neoglycolipid with regard to Helicobacter pylori (in words) (Helicobacter pylori [1]): totally inactive
CCCCCCCCCCCCCCCCc1ccc(NC[C@H](O)[C@@H](O)[C@H](O[C@@H]2O[C@H](CO)[C@H](O)[C@H](O[C@@H]3O[C@H](CO)[C@@H](O[C@@H]4O[C@H](CO)[C@H](O)[C@H](O[C@@H]5O[C@H](CO)[C@@H](O)[C@H](O)[C@H]5NC(C)=O)[C@H]4O)[C@H](O)[C@H]3NC(C)=O)[C@H]2O)[C@H](O)CO)cc1 [GlcNAcβ3Galβ4GlcNAcβ3Galβ4Glc(red)-HDA] |  | binding activity of neoglycolipid with regard to Helicobacter pylori (in words) (Helicobacter pylori [1]): observable binding activity
Fucα2Galβ4GlcNAcβ3Galβ4Glcβ1Cer [No. 18] | absence of binding | 
Galβ4GlcNAcβ3Galβ4GlcNAcβ3Galβ4Glcβ1Cer [No. 21] | displayed binding activity | amount of glycolipid giving a positive response on TLC plates (binding of Helicobacter pylori) (Helicobacter pylori [3]): ~0.2 nmol/spot; binding frequency for Helicobacter pylori [2]: ~90%
GalNAcβ3Galα3Galβ4GlcNAcβ3Galβ4Glcβ1Cer [No. 25] | non-binding | 
GlcNAcβ3Galβ4Glcβ1Cer [No. 1] | inactive | 
NeuGcα3Galβ4GlcNAcβ3Galβ4GlcNAcβ3Galβ4Glcβ1Cer [No. 27] |  | binding by Helicobacter pylori isolates ([2]; about 60 isolates tested): bound by most Helicobacter pylori isolates
GalNAcβ3Galβ4GlcNAcβ3Galβ4Glcβ1Cer [No. 11] | binding was also found | 
NeuAcα3GalNAcβ3Galβ4GlcNAcβ3Galβ4Glcβ1Cer [No. 24] | non-binding | 
Galα3Galβ4GlcNAcβ3Galβ4Glcβ1Cer [No. 13] | binding-active | 
Galα4Galβ4GlcNAcβ3Galβ4Glcβ1Cer [No. 15] | absence of binding | 
Galβ4Glcβ1Cer [diglycosylceramide] | displayed binding activity | 
